Reference: patent US20260184663A1, “INDENE COMPOUNDS, PHARMACEUTICAL COMPOSITIONS THEREOF, AND THEIR THERAPEUTIC APPLICATIONS” (NucMito Pharmaceuticals co. Ltd., priority 2022, published 2026)

Assays:
Format in all cases: cell-based
[1] = test system: A431 (epidermoid carcinoma); assay: Antiproliferative activity (CCK-8 cell viability), A431; settings: Homo sapiens, 72 h, read-out: Antiproliferative activity in cancerous cells, A431 (inhibition of cell growth); for inhibition at 3.3 µM: A-431, Compound concentration: 3.3 μM; for inhibition at 10 µM: A-431, Compound concentration: 10 μM
Description: (§1) The antiproliferative activity of a compound was determined in the following cell lines: MDA-MB-231 (breast cancer), HepG2 (liver cancer), SW480 (colon cancer), B16F10 (malignant melanoma), A431 (epidermoid carcinoma), A549 (lung adenocarcinoma), and HeLa (cervical cancer). MDA-MB-231, HepG2, SW480, B16F10, and A431 cells were cultured in Dulbecco's modified Eagle's medium (DMEM) containing 10% fetal bovine serum (FBS). HeLa cells were cultured in MEM/EBSS (MEM) containing 10% FBS. A549 cells were maintained in Kaighn's modification of Ham's F-12 medium containing 10% FBS. A Cell Counting Kit-8 (CCK-8) was used to measure the cell viability of different cells following treatment with the compound.
(§2) Briefly cells were seeded in a 96-well plate at a density of 2,000-5,000 cells/well. Following attachment, the cells were treated with the compound in media at a compound concentration of 3.3 μM, 10 μM, or 30 μM. After the cells were incubated at 37° C. for 72 h, a CCK-8 solution (10 μL) was added to each well. After incubation at 37° C. for 4 h, the absorbance value of each well was determined using a multi-well plate reader at 450 nm. The wells treated with DMSO were taken as a vehicle control. Data were also obtained similarly for all the replicates and the percentage of cell viability was determined with respect to the DMSO-treated cells. The results are summarized in Tables 2-4, wherein A represents no less than […] of cell growth; B represents no less than 30% but less than 50% inhibition of cell growth; and C represents less than 30% inhibition of cell growth.

[2] = test system: B16F10 (malignant melanoma); assay: Antiproliferative activity (CCK-8 cell viability), B16F10; settings: Mus musculus, 72 h; for inhibition at 3.3 µM: B16-F10, Compound concentration: 3.3 μM; for inhibition at 3.3 µM / inhibition at 10 µM: read-out: Antiproliferative activity in cancerous cells, B16F10 (inhibition of cell growth); for inhibition at 10 µM: B16-F10, Compound concentration: 10 μM
Description: as §1, §2

HepG2 (liver cancer) = assay: Antiproliferative activity (CCK-8 cell viability), HepG2; settings: Homo sapiens, 72 h; for inhibition at 3.3 µM: Compound concentration: 3.3 μM; for inhibition at 3.3 µM / inhibition at 10 µM: read-out: Antiproliferative activity in cancerous cells, HepG2 (inhibition of cell growth); for inhibition at 10 µM: Compound concentration: 10 μM
Description: as §1, §2

[3] = test system: A549 (lung adenocarcinoma); assay: Antiproliferative activity (CCK-8 cell viability), A549; settings: Homo sapiens, 72 h; for inhibition at 3.3 µM: Compound concentration: 3.3 μM; for inhibition at 3.3 µM / inhibition at 10 µM: read-out: Antiproliferative activity in cancerous cells, A549 (inhibition of cell growth); for inhibition at 10 µM: Compound concentration: 10 μM
Description: as §1, §2

SW480 (colon cancer) = assay: Antiproliferative activity (CCK-8 cell viability), SW480; settings: Homo sapiens, 72 h; for inhibition at 3.3 µM: Compound concentration: 3.3 μM; for inhibition at 3.3 µM / inhibition at 10 µM: read-out: Antiproliferative activity in cancerous cells, SW480 (inhibition of cell growth); for inhibition at 10 µM: Compound concentration: 10 μM
Description: as §1, §2

HeLa (cervical cancer) = assay: Antiproliferative activity (CCK-8 cell viability), HeLa; settings: Homo sapiens, 72 h, read-out: Antiproliferative activity in cancerous cells, HELA (inhibition of cell growth); for inhibition at 3.3 µM: Compound concentration: 3.3 μM; for inhibition at 10 µM: Compound concentration: 10 μM
Description: as §1, §2

[4] = test system: MDA-MB-231 (breast cancer); assay: Antiproliferative activity (CCK-8 cell viability), MDA-MB-231; settings: Homo sapiens, 72 h; for inhibition at 3.3 µM: Compound concentration: 3.3 μM; for inhibition at 3.3 µM / inhibition at 10 µM: read-out: Antiproliferative activity in cancerous cells, MDA-MB-231 (inhibition of cell growth); for inhibition at 10 µM: Compound concentration: 10 μM; for inhibition at 30 µM: Compound concentration: 30 μM, read-out: Antiproliferative activity in cancerous cells, MDA-MB-231
Description: as §1, §2

Row | Structure (SMILES) | inhibition at 3.3 µM [1] [%] | inhibition at 10 µM [1] [%] | inhibition at 3.3 µM [2] [%] | inhibition at 10 µM [2] [%] | inhibition at 3.3 µM (HepG2 (liver cancer)) [%] | inhibition at 10 µM (HepG2 (liver cancer)) [%] | inhibition at 3.3 µM [3] [%] | inhibition at 10 µM [3] [%] | inhibition at 3.3 µM (SW480 (colon cancer)) [%] | inhibition at 10 µM (SW480 (colon cancer)) [%] | inhibition at 3.3 µM (HeLa (cervical cancer)) [%] | inhibition at 10 µM (HeLa (cervical cancer)) [%] | inhibition at 3.3 µM [4] [%] | inhibition at 10 µM [4] [%] | inhibition at 30 µM [4] [%] | inhibition at 30 µM ([2]; B16-F10, Compound concentration: 30 μM, read-out: Antiproliferative activity in cancerous cells, B16F10) [%] | inhibition at 30 µM (HepG2 (liver cancer); Compound concentration: 30 μM, read-out: Antiproliferative activity in cancerous cells, HepG2) [%] | inhibition at 30 µM ([3]; Compound concentration: 30 μM, read-out: Antiproliferative activity in cancerous cells, A549) [%] | inhibition at 30 µM (SW480 (colon cancer); Compound concentration: 30 μM, read-out: Antiproliferative activity in cancerous cells, SW480) [%]
1 | CC1=C(CC(=O)O)c2cc(F)ccc2/C1=C\c1ccc(CCOc2ccccc2)cc1 [B32, (Z)-2-(5-Fluoro-2-methyl-1-(4-(2-phenoxyethyl)benzylidene)-1H-inden-3-yl)acetic acid] | 30 to 50 | ≥ 50 | 30 to 50 | ≥ 50 | < 30 | ≥ 50 | 30 to 50 | ≥ 50 | 30 to 50 | 30 to 50 | < 30 | ≥ 50 | < 30 | < 30 | – | – | – | – | –
2 | CC1=C(CC(=O)O)c2cc(F)ccc2/C1=C\c1ccc(CCOc2ccc(F)cc2)cc1 [B33, (Z)-2-(5-Fluoro-1-(4-(2-(4-fluorophenoxy)ethyl)benzylidene)-2-methyl-1H-inden-3-yl)acetic acid] | ≥ 50 | ≥ 50 | ≥ 50 | ≥ 50 | < 30 | 30 to 50 | < 30 | 30 to 50 | < 30 | 30 to 50 | < 30 | 30 to 50 | < 30 | 30 to 50 | – | – | – | – | –
3 | CC1=C(CC(=O)O)c2cc(F)ccc2/C1=C\c1ccc(CCOc2ccc(Cl)cc2)cc1 [B34, (Z)-2-(1-(4-(2-(4-Chlorophenoxy)ethyl)benzylidene)-5-fluoro-2-methyl-1H-inden-3-yl)acetic acid] | ≥ 50 | ≥ 50 | 30 to 50 | ≥ 50 | < 30 | ≥ 50 | 30 to 50 | ≥ 50 | < 30 | ≥ 50 | < 30 | ≥ 50 | < 30 | < 30 | – | – | – | – | –
4 | CC1=C(CC(=O)O)c2cc(F)ccc2/C1=C\c1ccc(OCCc2ccc(Cl)cc2)cc1 [B35, (Z)-2-(1-(4-(4-Chlorophenethoxy)benzylidene)-5-fluoro-2-methyl-1H-inden-3-yl)acetic acid] | ≥ 50 | ≥ 50 | ≥ 50 | ≥ 50 | 30 to 50 | ≥ 50 | ≥ 50 | ≥ 50 | < 30 | ≥ 50 | < 30 | ≥ 50 | ≥ 50 | ≥ 50 | – | – | – | – | –
5 | CC1=C(CC(=O)O)c2cc(F)ccc2/C1=C\c1ccc(CSc2nc3ccccc3[nH]2)cc1 [B44, (Z)-2-(1-(4-(((1H-Benzo[d]imidazol-2-yl)thio)methyl)benzylidene)-5-fluoro-2-methyl-1H-inden-3-yl)acetic acid] | < 30 | ≥ 50 | ≥ 50 | ≥ 50 | ≥ 50 | ≥ 50 | < 30 | ≥ 50 | 30 to 50 | ≥ 50 | ≥ 50 | ≥ 50 | ≥ 50 | ≥ 50 | – | – | – | – | –
6 | CC1=C(CC(=O)O)c2cc(F)ccc2/C1=C\c1ccc(CSc2ccc(F)cc2)cc1 [B45, (Z)-2-(5-Fluoro-1-(4-(((4-fluorophenyl)thio)methyl)benzylidene)-2-methyl-1H-inden-3-yl)acetic acid] | < 30 | 30 to 50 | < 30 | ≥ 50 | < 30 | ≥ 50 | < 30 | < 30 | < 30 | ≥ 50 | < 30 | ≥ 50 | < 30 | < 30 | < 30 | – | – | – | –
7 | COc1ccc(S(=O)(=O)Cc2ccc(/C=C3/C(C)=C(CC(=O)O)c4cc(F)ccc43)cc2)cc1 [B46, (Z)-2-(5-Fluoro-1-(4-(((4-methoxyphenyl)sulfonyl)methyl)benzylidene)-2-methyl-1H-inden-3-yl)acetic acid] | 30 to 50 | ≥ 50 | < 30 | ≥ 50 | 30 to 50 | 30 to 50 | < 30 | < 30 | 30 to 50 | 30 to 50 | < 30 | ≥ 50 | < 30 | 30 to 50 | – | – | – | – | –
8 | CC1=C(CC(=O)O)c2cc(F)ccc2/C1=C\c1ccc(CCOC2CCCCO2)cc1 (stereo not drawn) [B47, (Z)-2-(5-Fluoro-2-methyl-1-(4-(2-((tetrahydro-2H-pyran-2-yl)oxy)ethyl)-benzylidene)-1H-inden-3-yl)acetic acid] | 30 to 50 | 30 to 50 | ≥ 50 | ≥ 50 | 30 to 50 | ≥ 50 | < 30 | ≥ 50 | < 30 | ≥ 50 | ≥ 50 | ≥ 50 | ≥ 50 | ≥ 50 | – | – | – | – | –
9 | CCc1ccc2c(c1)/C(=C\c1ccc(COc3ccccc3)cc1)C(C)=C2CC(=O)O [B48, (Z)-2-(6-Ethyl-2-methyl-1-(4-(phenoxymethyl)benzylidene)-1H-inden-3-yl)acetic acid] | ≥ 50 | ≥ 50 | 30 to 50 | 30 to 50 | < 30 | < 30 | < 30 | 30 to 50 | < 30 | < 30 | 30 to 50 | ≥ 50 | < 30 | < 30 | < 30 | 30 to 50 | < 30 | 30 to 50 | < 30
